Measurements taken from US12544372B2, “Methods of treating rheumatoid arthritis, chronic spontaneous urticaria, and systemic lupus erythematosis using an inhibitor of Bruton's tyrosine kinase” (Genentech, Inc., priority 2019, dated 2026).
Marks after values point to notes of the source that are not given here.

Key:
Type in all cases: in vivo, human
[1] = system: Plasmablast signature (IgJ, Mzb1, Txndc5); assay: SLE study biomarker: plasmablast signature (RNA from blood)
Method: (§1) The following biomarkers were explored according to the biomarker objectives provided above in the Study Objectives. In Table 13, biomarkers are measured at baseline and subsequent timepoints during and after treatment. One set of biomarkers evaluated is the plasmablast signature. Plasmablasts are rapidly dividing, short-lived antibody secreting cells. While they represent a small proportion of B cells in the blood, they are responsible for a majority of antibody transcripts found in whole blood mRNA. The plasmablast signature comprises the biomarkers IgJ, Mzbl, and Txndc5. The gene expression of IgJ, Mzbl, and Txndc5 may be measured, for example, a polypeptide expression by evaluating the level of mRNA for said gene in a patient's blood relative to a reference level.

ESR = assay: RA study: ESR versus baseline
From the text: As used herein, “ESR” refers to “Erythrocyte Sedimentation Rate”, which is a test that indirectly measures the degree of inflammation in the body by measuring how quickly red blood cells settle at the bottom of a test tube containing a sample of a patient's blood. See www.healthline.com/health/esr (last visited Aug. 7, 2018). A positive ESR may be determined using the Westergren method according to specifications by the International Council for Standardization in Haematology, or by automated methods (e.g., TEST1 from Alifax). See https://icsh(dot)org/guidelines; Lou, J. M. et al., Int. Jnl. Lab. Hem. 2011, 33:125-132.
Disease Activity Score 28. The DAS 28-4 (CRP) and the DAS 28-4 (ESR) are calculated as follows. Assessments: (i) Tender joint count of 28 joints (TJC28), square-root transformed; (ii) Swollen joint count of 28 joints (SJC28), square-root transformed; (iii) Acute-phase reactant (erythrocyte sedimentation rate [ESR mm/hr] or high sensitivity C-reactive protein [hsCRP mg/L]), log transformed; (iv) Patient's global assessment of disease activity on visual analog scale (0-100 mm).

C3 = assay: SLE study biomarker: C3
Method: as §1

CD19+ B cells = assay: RA study: peripheral CD19+ B cells (flow cytometry)
Method: (§2) Biomarkers were evaluated in serum or plasma samples at baseline and weeks 1, 4, and 12 in patients with available samples (cohort 1: n=438; cohort 2: n=86). The biomarkers evaluated in this assessment were chemokine [C-C motif] ligand 4 (CCL4), IL-6, and TNF-like cytokine 1A (TL1A). Total IgM, IgG, rheumatoid factor IgM autoantibody (RF), CCL4, TL1A, IL-6, and anti-CCP autoantibody (ACPA IgG) levels were analyzed with immunoassays. CD19^+ B cells and CD3^+ T cells were measured by flow cytometry. The proportion of patients achieving an ACR50 response at week 12 and the change in DAS28 score by week 12 were assessed relative to seropositivity (RF and/or ACPA positive at baseline) or baseline levels of RF in both cohorts. To select which biomarkers to evaluate in this trial, BTK-dependent myeloid biomarkers were identified using peripheral blood CD14^+ monocytes stimulated with immune-complexes in the presence or absence of a BTK inhibitor. In brief, the expression levels of genes in human monocytes were assayed under conditions of no stimulation; with human serum albumin immune complex stimulation; with stimulation and a low concentration of a BTK inhibitor with similar characteristics to fenebrutinib; or with stimulation and a high concentration of the BTK inhibitor. […] Genes annotated with cytokine activity were selected. The color bar represents normalized gene expression.

IL-6 = assay: RA study biomarker: IL-6 (immunoassay)
Method: as §2

C[C@H]1CN(C2COC2)CCN1c1ccc(Nc2cc(-c3ccnc(N4CCn5c(cc6c5CC(C)(C)C6)C4=O)c3CO)cn(C)c2=O)nc1 [fenebrutinib, (S)-2-(3′-(hydroxymethyl)-1-methyl-5-((5-(2-methyl-4-(oxetan-3-yl)piperazin-1-yl)pyridin-2-yl)amino)-6-oxo-1,6-dihydro-[3,4′-bipyridin]-2′-yl)-7,7-dimethyl-2,3,4,6,7,8-hexahydro-1H-cyclopenta[4,5]pyrrolo[1,2-a]pyrazin-1-one]
Plasmablast signature, Median Change from Baseline at Week 48 ([1]; 150 mg QD): −54.3%* | Plasmablast signature, Median Change from Baseline at Week 48 ([1]; 200 mg BID): −51.7%* | ESR, % of BL ESR (ESR; Cohort 1, 200 mg BID, Week 12): 63% | ESR levels (ESR; Cohort 1, Weeks 2, 4 and 8): reduced ESR levels | ESR levels (ESR; Cohort 2, Week 8 and Week 12): reduced ESR levels | C3, Median Change from Baseline at Week 48 (C3; 150 mg QD): +0.01 g/L | C3, Median Change from Baseline at Week 48 (C3; 200 mg BID): -0.01 g/L | peripheral CD19+ B cells relative to placebo (CD19+ B cells; cohort 1 and cohort 2, by week 12): −4-13% | transient increase of peripheral CD19+ B cells relative to placebo (CD19+ B cells; cohort 1 and cohort 2, fenebrutinib treated groups, by week 1): 45-79% | IL-6 reduction relative to placebo (IL-6; Cohort 1, by week 12): not observed | IL-6 levels relative to placebo (IL-6; cohort 2, 200 mg twice daily, by week 12): −50%
